Assays:
[1] = tested on: CD44-negative and CD44-positive HuH7 cells; test: Sphere formation capability of sorted HuH7 cells; type: cell-based, human; details: 50 μM IC-2, 10 μM PN-3-13; one week
Experimental: First, HuH7 cells were collected. Next, the cells were stained with an anti-human CD44 monoclonal antibody (Cell Signaling Technology Inc., Danvers, Mass., USA)), and then with an Alexa 488-labeled goat anti-mouse IgG antibody. After that, a Beckman Coulter-MoFlo XDP (Beckman Coulter Inc., Fullerton, Calif., USA) was used to sort the cells into a CD44-negative fraction and a CD44-positive fraction. The sorted cells were seeded at 5×10^4 cells/well on a 24-well ultra-low-attachment multiwell plate (Corning, N.Y., USA). Subsequently, the cells were cultured at 37° C. in the presence of 5% CO2 in a DMEM/Nutrient Mixture F-12 Ham (Sigma-Aldrich, St. Louis, Mo., USA) containing 20 ng/mL of recombinant human epidermal growth factor, 20 ng/mL of human basic fibroblast growth factor, 1×B27, and L-glutamine. Twenty-four hours after the plating, 1% DSMO, 50 μM IC-2, and 10 μM PN-3-13 were each added to the corresponding well and the cells were further cultured. One week after the chemical treatment, the number of spheres (with a size of 100 μm or larger) in 15 visual fields/well was counted.

[2] = tested on: Wnt/β-catenin signal; test: Dual-luciferase reporter assay in HSC2 cells; type: cell-based; details: 48 hours
Experimental: (§1) First, 5×10^4 of HSC2 cells were seeded on each well of a 24-well plate. After 24 hours, transfection was carried out by using 1 μL of lipofectamine 2000 (Invitrogen, Life Technologies Corp., Carlsbad, Calif.), 50 ng of pTCF4-CMVpro-FLuc, and 2.5 ng of pCMVpro-Rluc. After 48 hours from the low-molecular-weight compound treatment, 100 μL of 20% Passive Lysis Buffer (PROMEGA, Wisconsin, USA) was added to each well of the 24-well plate. The plate was shaken at ordinary temperature for 15 min and was then allowed to stand overnight at −30° C. On the following day, a Dual-Luciferase (a registered trademark) Reporter Assay System (PROMEGA) was used, and luciferase activity was then measured by using a MiniLumat LB 9506 (Berthold Technologies, Bad Wildbad, German).

[3] = tested on: Wnt/β-catenin signal; test: Dual-luciferase reporter assay in colon cancer cells; type: cell-based; details: DLD-1, HCT 116, colo 205; 48 hours
Experimental: as §1, with “First, 3.34×10^4 colon cancer” for “First, 5×10^4 of HSC2”, “cells (DLD-1, HCT 116, or colo 205)” for “cells”, “of a” for “of the”

[4] = tested on: squamous cell carcinoma cells (HSC2; HSC3 for IC-2); test: Anti-tumor effect on squamous cell carcinoma cells (TetraColor ONE); type: cell-based; details: HSC2 (HSC3 also for IC-2); 48 hours
Experimental: HSC2 cells (a squamous cell carcinoma cell line) were cultured in a DMEM on a 10-cm cell culture dish (TPP Techno Plastic Products AG, Trasadingen, Switzerland) at 5% CO2, 37° C., and a humidity of 100%. The cells at 70-90% confluency were to be split and washed with PBS (−). Next, 300 μL of Trypsin/EDTA was added to 2 mL of PBS (−) and the cells were incubated with this solution at 37° C. for 5 min to detach the cells. Then, 5 mL of DMEM was used to recover the cells. The recovered cells were centrifuged at 1000 rpm for 3 min to remove a supernatant. The pelleted cells were suspended in DMEM and subcultured at 1:4.
First, 2.5×10^3 of HSC2 cells were seeded on each well of a 96-well plate (TPP). After 48 hours from the low-molecular-weight compound treatment, 100 μL of 10% TetraColor ONE (SEIKAGAKU CORPORATION, Tokyo, Japan) was added and the mixture was then incubated at 37° C. After that, absorbance (at a measurement wavelength of 450 nm/a control wavelength of 600 nm) was measured by a 96-well microplate reader (TECAN, Zurich, Switzerland). The same procedure was used to investigate an anti-tumor effect of IC-2 on a squamous cell carcinoma cell line HSC3 after culturing.

[5] = tested on: unsorted HuH7 cells; test: Mice transplanted with unsorted HuH7 cells; type: in vivo; details: unsorted HuH7 cells instead of CD44-positive HuH7 cells
Excerpt: The effect of treating malignant tumors may be evaluated by imaging, endoscopic examination, biopsy, or detection of a malignant tumor marker. In addition, the effect of treating cancer stem cells may be evaluated by imaging, endoscopic examination, biopsy, or detection of a cancer stem cell marker. In addition, the effect of treating fibrosis may be evaluated by imaging, endoscopic examination, biopsy, or detection of a fibrosis marker. […] At this time, the level of a marker after administration of a therapeutic drug may be 0.7, 0.5, 0.3, or 0.1 times the level before the administration (or of a control). […] At this time, the number of marker-positive cells after administration of the therapeutic drug may be 0.7, 0.5, 0.3, or 0.1 times the number before the administration (or of a control). Note that in Example 2 below, the therapeutic effect was evaluated by using mice in which CD44-positive HuH7 cells had been subcutaneously transplanted. The present inventors also replaced the above CD44-positive HuH7 cells by unsorted HuH7 cells.

O=C1[C@H](Cc2ccccc2)N2C(=O)CCN(C(=O)NCc3ccccc3)[C@H]2CN1Cc1cccc2ccccc12 [IC-2] was tested, and the “formation of spheres, CD44-negative HuH7 cells” value [1] was “inhibited formation of spheres”, the “formation of spheres, CD44-positive HuH7 cells” value [1] was “inhibited formation of spheres” and the “inhibitory effect on a Wnt/β-catenin signal in the squamous cell carcinoma cells” value [2] was “exerted an inhibitory effect”. The “inhibitory effect on a Wnt/β-catenin signal in the colon cancer cells” value [3] was “exerted an inhibitory effect”, the “inhibitory effects on proliferation of the squamous cell carcinoma cells” value [4] was “exerted inhibitory effects on proliferation” and the “effect of treating a malignant tumor” value [5] was “exhibits an effect of treating a malignant tumor”.

— patent publication US11213527B2, “Inhibitory effect of low molecular weight compound on cancer and fibrosis” (NATIONAL UNIVERSITY CORPORATION TOTTORI UNIVERSITY, priority 2014, dated 2022)
